Measurements from ChEMBL document CHEMBL1201862, “PubChem BioAssay data set” (2004).
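Step 1: Grow cells in 96-well plates. Step 2: Expose to compound for 48 hours at 5 concentrations. Step 3: Interpolate endpoints linearly; if unreached, use highest concentration. GI50 is the concentration that inhibits growth by half.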 Active and inactive are the calls of the source. Rule as the data show it: active = GI50 up to about 1.1 µM and inactive = higher.

How the values were obtained:
Assay in all cases: NCI anticancer screen, dose series, 48 h
KM12 = system: KM12
HOP-92 = system: HOP-92
SN12C = system: SN12C
SF-268 = system: SF-268
HCT-116 = system: HCT-116
HL-60 = system: HL-60
MDA-N = system: MDA-N
HCC 2998 = system: HCC 2998
UACC-62 = system: UACC-62
HCT-15 = system: HCT-15
MCF7 = system: MCF7
CAKI-1 = system: CAKI-1
CCRF-CEM = system: CCRF-CEM
PC-3 = system: PC-3
SK-OV-3 = system: SK-OV-3
NCI-H23 = system: NCI-H23
SR = system: SR
UACC-257 = system: UACC-257
T47D = system: T47D

Row | SMILES | GI50 (KM12) | GI50 (HOP-92) | GI50 (SN12C) | GI50 (SF-268) | GI50 (HCT-116) | GI50 (HL-60) | GI50 (MDA-N) | GI50 (HCC 2998) | GI50 (UACC-62) | GI50 (HCT-15) | GI50 (MCF7) | GI50 (CAKI-1) | GI50 (CCRF-CEM) | GI50 (PC-3) | GI50 (SK-OV-3) | GI50 (NCI-H23) | GI50 (SR) | GI50 (UACC-257) | GI50 (T47D)
1 | COC(=O)[C@H](Cc1ccc(OC(C)(C)C)cc1)N[C@H](C)C(=O)N[C@@H](Cc1ccccc1)C(=O)OCc1ccccc1 | 83.9 µM (inactive) | > 100 µM (inactive) | 26.9 µM (inactive) | > 100 µM (inactive) | 35.6 µM (inactive) | 45.5 µM (inactive) | > 100 µM (inactive) | > 100 µM (inactive) | > 100 µM (inactive) | > 100 µM | 34.5 µM (inactive) | > 100 µM (inactive) | 40.2 µM (inactive) | 61.7 µM (inactive) | > 100 µM (inactive) | > 100 µM (inactive) | 26.2 µM (inactive) | > 100 µM (inactive) | 
2 | O=C(Cn1c2c(c3ccccc31)CCCC2)NC1CCCCC1 |  |  | > 100 µM (inactive) | 77.3 µM (inactive) | > 100 µM (inactive) | 0.405 µM (active) | > 100 µM (inactive) | > 100 µM (inactive) | 56.4 µM (inactive) | > 100 µM | > 100 µM (inactive) | > 100 µM (inactive) | > 100 µM (inactive) | 88.7 µM (inactive) | 45.9 µM (inactive) | > 100 µM (inactive) |  | > 100 µM (inactive) | 
3 | COc1ccc(C#Cn2nnc3ccccc32)cc1 | 96.4 µM (inactive) | > 100 µM (inactive) | > 100 µM (inactive) | 91.2 µM (inactive) | > 100 µM (inactive) | 21.6 µM (inactive) | > 100 µM (inactive) | 26.2 µM (inactive) | > 100 µM (inactive) | > 100 µM | 41.8 µM (inactive) | 32.1 µM (inactive) |  | 86.7 µM (inactive) |  | > 100 µM (inactive) | > 100 µM (inactive) | 50.4 µM (inactive) | 
4 | C/C=C\C(CC(=O)NCCC1CN(C(=O)OCc2ccccc2)c2ccccc21)CC(=O)OC (stereo not drawn) | > 100 µM (inactive) | 72.1 µM (inactive) |  | > 100 µM (inactive) | > 100 µM (inactive) |  | > 100 µM (inactive) | > 100 µM (inactive) | > 100 µM (inactive) | > 100 µM | > 100 µM (inactive) | > 100 µM (inactive) | > 100 µM (inactive) | 99.8 µM (inactive) | > 100 µM (inactive) | > 100 µM (inactive) |  | > 100 µM (inactive) | 
5 | NC1=NN(c2ccccc2)C(=O)C1/C(=N\NC(=O)c1cc2ccccc2cc1O)C(=O)Nc1ccc(Cl)c(Cl)c1 (stereo not drawn) | 43.6 µM (inactive) | 32.7 µM (inactive) | 35.6 µM (inactive) | 22.9 µM (inactive) | 35.2 µM (inactive) | 5.13 µM (inactive) |  | 43 µM (inactive) | 17.7 µM (inactive) | 13.6 µM |  | 54.5 µM (inactive) | 10.1 µM (inactive) |  |  | 28.9 µM (inactive) | 0.0612 µM (active) | 29.7 µM (inactive) | 
6 | COC(=O)c1ccc(NCC2=CC(=O)C=CC2=O)cc1 | 13.6 µM (inactive) | 3.43 µM (inactive) |  | 13.7 µM (inactive) | 3.74 µM (inactive) | 2.33 µM (inactive) | 11.4 µM (inactive) | 21.6 µM (inactive) | 14.6 µM (inactive) | 12.5 µM | 14.2 µM (inactive) | 2.4 µM (inactive) | 1.67 µM (inactive) | 12.6 µM (inactive) | 16.7 µM (inactive) | 14.5 µM (inactive) | 5.26 µM (inactive) | 12.4 µM (inactive) | 
7 | NC(=O)C(=CN1C(=O)CC(=O)NC1=S)C(N)=O | > 100 µM (inactive) | > 100 µM (inactive) | > 100 µM (inactive) | > 100 µM (inactive) | > 100 µM (inactive) | > 100 µM (inactive) |  | > 100 µM (inactive) |  | > 100 µM | > 100 µM (inactive) | > 100 µM (inactive) |  |  | > 100 µM (inactive) | > 100 µM (inactive) |  | > 100 µM (inactive) | > 100 µM (inactive)
8 | Cc1cc(-c2[nH]c(C(=O)O)cc2I)on1 | > 100 µM (inactive) | 9.33 µM (inactive) |  | 68.7 µM (inactive) | 42 µM (inactive) |  | > 100 µM (inactive) | > 100 µM (inactive) | 53.8 µM (inactive) | > 100 µM | > 100 µM (inactive) | 93.1 µM (inactive) |  | > 100 µM (inactive) | 76 µM (inactive) | 51.2 µM (inactive) |  | > 100 µM (inactive) | 
9 | Cc1cccc2c(N)c3cccc(C(=O)NCCN(C)C)c3nc12 |  |  | < 0.0167 µM (active) | < 0.0265 µM (active) | 0.0236 µM (active) | < 0.01 µM (active) |  | 0.027 µM (active) | 0.0649 µM (active) | < 0.0154 µM | < 0.0168 µM (active) | < 0.015 µM (active) | < 0.01 µM (active) | 0.0643 µM (active) | 0.113 µM (active) | < 0.0259 µM (active) | < 0.01 µM (active) | 0.193 µM (active) | 0.0378 µM (active)
10 | c1ccc2c(c1)OCCc1cn[nH]c1-2 | > 100 µM (inactive) | > 42.3 µM (inactive) | > 79.3 µM (inactive) | > 100 µM (inactive) | > 100 µM (inactive) | 60.3 µM (inactive) |  | > 100 µM (inactive) | 66.7 µM (inactive) | > 100 µM | > 100 µM (inactive) | 0.452 µM (active) | > 100 µM (inactive) |  | > 100 µM (inactive) | > 100 µM (inactive) |  | > 100 µM (inactive) | 
11 | C/C(=N\Nc1nc2ccccc2o1)c1cc(C)ncn1 | 0.0851 µM (active) |  | < 0.0205 µM (active) | 0.031 µM (active) | < 0.0191 µM (active) | < 0.01 µM (active) | 2.42 µM (inactive) | 11 µM (inactive) | 0.0867 µM (active) | 0.043 µM | 0.0212 µM (active) | 0.0129 µM (active) | < 0.01 µM (active) | 0.0383 µM (active) | 0.0675 µM (active) | 0.102 µM (active) | 0.124 µM (active) | < 0.0211 µM (active) | 
12 | COc1cc(Nc2c(C#N)[n+]([O-])c3ccccc3[n+]2[O-])cc(OC)c1OC | 37.7 µM (inactive) | 28.1 µM (inactive) | 35.8 µM (inactive) | 27.2 µM (inactive) | 16.4 µM (inactive) | 41.2 µM (inactive) |  | 18.4 µM (inactive) |  | 15.6 µM | 24.2 µM (inactive) | 38.1 µM (inactive) | 27 µM (inactive) | 33.3 µM (inactive) | 15.7 µM (inactive) | 19.6 µM (inactive) |  | 27.4 µM (inactive) | 14.8 µM (inactive)
13 | O=c1[nH]c(=O)n(COCCO)c2ccsc12 | > 100 µM (inactive) | > 100 µM (inactive) | > 100 µM (inactive) | > 100 µM (inactive) | > 100 µM (inactive) | > 100 µM (inactive) | > 100 µM (inactive) | > 100 µM (inactive) |  | > 100 µM | > 100 µM (inactive) | > 100 µM (inactive) | > 100 µM (inactive) | > 100 µM (inactive) |  | > 100 µM (inactive) | > 100 µM (inactive) | > 100 µM (inactive) | 
